Experimental data published in US10759768B2, “Prophylactic or therapeutic agent for autism spectrum disorder” (priority 2016, dated 2020).
“Also recorded” adds a separate entry of the source.

Tested on: rat valproic acid-exposed autism model
Assay: Sociability test (3 chamber) in rat embryonic valproic acid-exposed autism model
Format: in vivo
Details: compound A 0.2 or 1 mg/kg orally once a day for 14 days from 3 weeks of age; male Sprague-Dawley offspring exposed to VPA 500 mg/kg i.p.; test at 5 weeks of age; FIG. 1
Method: Rat embryonic valproic acid-exposed autism model was used for the test. Sodium valproate (VPA) 500 mg/kg (mpk) was intraperitoneally administered to Sprague-Dawley pregnant rats on the 12.5th day in the embryonic stage. The offspring was weaned on the 21st day after birth, and only the male rat was used for the experiment. Compound A (0.2 or 1 mg/kg) was orally administered once a day at 18 o'clock for 14 days from 3 weeks of age after weaning and a behavioral test was conducted at 5 weeks of age. As unknown rat (Stranger rat), a purchased male rat of the same strain and the same week of age was used with no contact with the rat to be tested (test rat) until the day of the test.
In the experiment, a black plastic 3 chamber experimental apparatus (90×60×34 cm, each chamber 30×60×34 cm) was used. […]
On the day of the test, the rats to be tested and unknown rats were acclimated to the test environment for 1 hour or more and then the test was started. […] The sniffing to each cylinder (action of sniffing an object or an animal) was visually measured for 10 min. A sniffing index, which is an indicator of interest to other animal, was calculated by the following formula based on the sniffing time to each cylinder for 10 min. […]

CC(=O)NCC[C@@H]1CCc2ccc3nc(C)oc3c21 [compound A, (S)—N-[2-(2-methyl-7,8-dihydro-6H-indeno[5,4-d][1,3]oxazol-8-yl)ethyl]acetamide]
effect on social disorder / social performance (Sniffing index, Sniffing time to object): significant (# P≤0.025) improvement effect on social performance; also recorded: showed effectiveness on the social disorder
